IC50 data for 22 compounds are collected here from patent US9266870B2 (TAISHO PHARMACEUTICAL CO., LTD., priority 2012, dated 2016).

In assay [1] the target is human orexin-2 receptor (hOX2R) (Homo sapiens (Human), UniProt O43614). Kind of assay: Measurement of orexin antagonistic activity (intracellular Ca2+ fluorescence, FDSS), hOX2R. The format is cell-based. Particulars: CHO cells forcibly expressing hOX2R; ligand peptide (modified human orexin-A) 3 nM; maximum fluorescence intensity; read-out: IC50 Value OX2. The method, then: (§1) The antagonistic activities of the test compounds on human orexin-1 receptor (hOX1R) and orexin-2 receptor (hOX2R) were measured by modifying from the method described in literature (Toshikatsu Okumura et al., Biochemical and Biophysical Research Communications 280, 976-981, 2001). Chinese hamster ovary (CHO) cells forcibly expressing the hOX1R and hOX2R were seeded into a 96 well Black clear bottom plate (Nunc) at 20,000 cells per well, which were cultured in Ham's F-12 medium containing 0.1 mM MEM non-essential amino acids, 0.5 mg/ml G418, 10% fetal bovine serum (all by Invitrogen) for 16 hours under the conditions of 37° C., 5% CO2. After removing the medium, 100 μL of 0.5 μM Fluo-4AM ester (Dojin) in an assay buffer (25 mM HEPES (Dojin), Hank's balanced salt solution (Invitrogen), 0.1% bovine serum albumin, 2.5 mM probenecid, 200 μg/ml Amaranth (all by Sigma-Aldrich), pH 7.4) was added and the cells were incubated for 60 minutes at 37° C., 5% CO2. After removing the assay buffer containing […] ester, the test compound was dissolved in dimethyl sulfoxide to be 10 mM and diluted with the assay buffer, 150 μL of which was added and incubated for 30 minutes.
(§2) The reaction was measured for the fluorescence intensity of each well every second for 3 minutes using Functional Drug Screening System (FDSS; Hamamatsu Photonics K.K.), and the antagonistic activity was determined using the maximum fluorescence intensity as the indicator of intracellular Ca2+ concentration.

In assay [2] the target is human orexin-1 receptor (hOX1R) (Homo sapiens (Human), UniProt O43613). Kind of assay: Measurement of orexin antagonistic activity (intracellular Ca2+ fluorescence, FDSS), hOX1R. The format is cell-based. Particulars: ligand peptide (modified human orexin-A) 300 pM, maximum fluorescence intensity. How it is done:
as §1, with “Chinese” for “The antagonistic activities of the test compounds on human orexin-1 receptor (hOX1R) and orexin-2 receptor (hOX2R) were measured by modifying from the method described in literature (Toshikatsu Okumura et al., Biochemical and Biophysical Research Communications 280, 976-981, 2001). Chinese”
as §2

The mark [3] stands for this setting: CHO cells forcibly expressing hOX1R, read-out: IC50 Value OX1.

Read-outs that look alike come from different tables or passages of the source.

human orexin-1 receptor (hOX1R), sequence (O43613 whole entry): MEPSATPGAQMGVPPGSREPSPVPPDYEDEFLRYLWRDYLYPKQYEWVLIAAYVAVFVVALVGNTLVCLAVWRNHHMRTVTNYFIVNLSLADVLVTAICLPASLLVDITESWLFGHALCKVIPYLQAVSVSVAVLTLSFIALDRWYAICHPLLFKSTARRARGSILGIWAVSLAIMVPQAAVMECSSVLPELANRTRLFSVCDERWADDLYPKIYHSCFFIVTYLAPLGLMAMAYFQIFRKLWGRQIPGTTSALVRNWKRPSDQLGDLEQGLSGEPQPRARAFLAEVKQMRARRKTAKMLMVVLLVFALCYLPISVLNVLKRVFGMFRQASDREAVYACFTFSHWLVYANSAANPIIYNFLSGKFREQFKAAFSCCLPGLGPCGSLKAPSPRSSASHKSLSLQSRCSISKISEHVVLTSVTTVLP
human orexin-2 receptor (hOX2R), sequence (O43614 whole entry): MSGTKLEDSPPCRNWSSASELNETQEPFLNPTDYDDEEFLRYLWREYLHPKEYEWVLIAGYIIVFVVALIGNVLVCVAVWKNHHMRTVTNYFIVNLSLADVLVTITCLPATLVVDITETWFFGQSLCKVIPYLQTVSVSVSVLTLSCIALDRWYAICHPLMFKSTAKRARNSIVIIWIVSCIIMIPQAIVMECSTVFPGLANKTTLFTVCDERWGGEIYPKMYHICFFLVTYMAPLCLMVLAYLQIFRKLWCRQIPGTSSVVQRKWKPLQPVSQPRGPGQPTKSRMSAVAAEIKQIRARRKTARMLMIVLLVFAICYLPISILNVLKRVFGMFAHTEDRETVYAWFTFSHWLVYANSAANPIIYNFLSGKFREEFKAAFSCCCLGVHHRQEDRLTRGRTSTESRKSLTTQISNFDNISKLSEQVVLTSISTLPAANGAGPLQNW

Consider `O=C(c1ccccc1-n1nccn1)N1CCOC1Cn1ccc(-c2ccc(F)cn2)n1` (racemic) [Example 11, (±)-(2-{[3-(5-Fluoropyridin-2-yl)-1H-pyrazol-1-yl]methyl}-1,3-oxazolidin-3-yl)[2-(2H-1,2,3-triazol-2-yl)phenyl]methanone], for which the IC50 in assay [1] came out at 252 nM; in assay [2] (setting [3]) it was 17.5 nM.
Regarding `O=C(c1cc(F)ccc1-n1nccn1)N1CCOC1Cn1ccc(-c2ccc(F)cn2)n1` (racemic) [Example 12, (±)-(2-[[3-(5-fluoropyridin-2-yl)-1H-pyrazol-1-yl]methyl]-1,3-oxazolidin-3-yl) [5-fluoro-2-(2H-l,2,3-triazol-2-yl)phenyl]methanone], in assay [1], the IC50 was determined as 171 nM.
On to `Cc1ccc(-n2nccn2)c(C(=O)N2CCOC2Cn2ccc(-c3ccc(F)cn3)n2)n1` (racemic) [Example 13, (±)-(2-[[3-(5-fluoropyridin-2-yl)-1H-pyrazol-1-yl]methyl]-1,3-oxazolidin-3-yl) [6-methyl-3-(2H-l,2,3-triazol-2-yl)pyridin-2-yl] methanone], for which the IC50 was determined as 251 nM in assay [1] and 121 nM in assay [2] (setting [3]).
In the case of `O=C(c1cc(F)ccc1-c1ncccn1)N1CCOC1Cn1ccc(-c2ccc(F)cn2)n1` (racemic) [Example 16, (±)-(2-[[3-(5-fluoropyridin-2-yl)-1H-pyrazol-1-yl]methyl]-1,3-oxazolidin-3-yl) [5-fluoro-2-(pyrimidin-2-yl)phenyl]methanone], the IC50 in assay [1] came to 71.7 nM; in assay [2] (setting [3]) it was 28.9 nM.
Turning to `Cc1ccc(-n2nccn2)c(C(=O)N2CCOC2Cn2ccc(-c3ccc(F)cc3)n2)c1` (racemic) [Example 17, (±)-(2-[[3-(4-fluorophenyl)-1H-pyrazol-1-yl]methyl]-1,3-oxazolidin-3-yl)[5-methyl-2-2H-1,2,3-triazol-2-yl) phenyl]methanone], the IC50 in assay [2] (setting [3]) amounted to 5.1 nM.
As to `O=C(c1ccccc1-n1nccn1)N1CCOC1Cn1ccc(-c2ccc(F)cc2)n1` (racemic) [Example 18, (±)-(2-[[3-(4-fluorophenyl)-1H-pyrazol-1-yl]methyl]-1,3-oxazolidin-3-yl)[2-(2H-1,2,3-triazol-2-yl)phenyl] methanone], the IC50 was found to be 192 nM in assay [1] and 26.4 nM in assay [2] (setting [3]).
`O=C(c1cc(F)ccc1-n1nccn1)N1CCOC1Cn1ccc(-c2ccc(F)cc2)n1` (racemic) [Example 19, (±)-(2-[[3-(4-fluorophenyl)-1H-pyrazol-1-yl]methyl]-1,3-oxazolidin-3-yl)[5-fluoro-2-(2H-1,2,3-triazol-2-yl)phenyl]methanone]: the figures for the IC50 in assay [1] and in assay [2] (setting [3]) were 233 nM and 76.8 nM, respectively.
For `Cc1ccc(-c2ncccn2)c(C(=O)N2CCOC2Cn2ccc(-c3ccc(F)cc3)n2)c1` (racemic) [Example 20, (±)-(2-[[3-(4-fluorophenyl)-1H-pyrazol-1-yl]methyl]-1,3-oxazolidin-3-yl)[5-methyl-2-(pyrimidin-2-yl)phenyl]methanone], the IC50 in assay [1] was determined as 101 nM; in assay [2] (setting [3]), 12.3 nM.
As to `O=C(c1cc(F)ccc1-c1ncccn1)N1CCOC1Cn1ccc(-c2ccc(F)cc2)n1` (racemic) [Example 21], the figures for the IC50 in assay [1] and in assay [2] (setting [3]) were 234 nM and 30.2 nM, respectively.
Consider `Cc1ccc(-c2ncccn2)c(C(=O)N2CCOC2Cn2cc(-c3ccc(F)cc3)cn2)c1` (racemic) [Example 24, (±)-(2-[[4-(4-fluorophenyl)-1H-pyrazol-1-yl]methyl]-1,3-oxazolidin-3-yl)[5-methyl-2-(pyrimidin-2-yl)phenyl]methanone], for which, in assay [1], the IC50 was 26.7 nM.
Take `Cc1ccc(-n2nccn2)c(C(=O)N2CCOC2Cn2ccc(-c3ccc(F)cn3)n2)c1` (single isomer, unassigned; (-)) [Example 1, (−)-(2-{[3-(5-Fluoropyridin-2-yl)-1H-pyrazol-1-yl]methyl}-1,3-oxazolidin-3-yl)[5-methyl-2-(2H-1,2,3-triazol-2-yl)phenyl]methanone]: the 50% inhibitory concentration (IC50) in assay [2] (setting [3]) worked out at 4.9 nM.
With `Cc1ccc(-n2nccn2)c(C(=O)N2CCCOC2Cn2cc(-c3ccc(F)cn3)cn2)c1` (single isomer, unassigned; (-)) [Example 4, (−)-(2-[[4-(5-fluoropyridin-2-yl)-1H-pyrazol-1-yl]-methyl]-1,3-oxazinan-3-yl)[5-methyl-2-(2H-1,2,3-triazol-2-yl)phenyl] methanone], in assay [2] (setting [3]), the IC50 came out at 9.6 nM.
In the case of `Cc1ccc(-n2nccn2)c(C(=O)N2CCCOC2Cn2cc(-c3ccc(F)cc3)cn2)c1` (single isomer, unassigned; (-)) [Example 35, (−)-[2-[[4-(4-fluorophenyl)-1H-pyrazol-1-yl]methyl]-1,3-oxazinan-3-yl][5-methyl-2-(2H-1,2,3-triazol-2-yl)phenyl]methanone], the IC50 in assay [2] (IC50 Value OX1, CHO cells forcibly expressing hOX1R) amounted to 0.8 nM.
In the case of `Cc1ccc(-n2nccn2)c(C(=O)N2CC(C)COC2Cn2cc(-c3ccc(F)cn3)cn2)c1` (single isomer, unassigned; (-)) [Example 40, (−)-[(2S*,5S*)-2-{[4-(5-Fluoropyridin-2-yl)-1H-pyrazol-1-yl]methyl}-5-methyl-1,3-oxazinan-3-yl][5-methyl-2-(2H-1,2,3-triazol-2-yl)phenyl]methanone], in assay [2] (setting [3]), the IC50 stood at 8.3 nM.
Still for that read-out and setting: the value for `Cc1ccc(-c2ncccn2)c(C(=O)N2CCCOC2Cn2cc(-c3ccc(F)cc3)cn2)c1` (single isomer, unassigned; (-)) [Example 43, (−)-[2-[[4-(4-fluorophenyl)-1H-pyrazol-1-yl]methyl]-1,3-oxazinan-3-yl][5-methyl-2-(pyrimidin-2-yl)phenyl]methanone] was 2.6 nM; that for `O=C(c1cc(F)ccc1-c1ncccn1)N1CCCOC1Cc1cnn(-c2ccc(F)cn2)c1` (single isomer, unassigned; (-)) [Example 44, (−)-[2-[[1-(5-fluoropyridin-2-yl)-1H-pyrazol-4-yl]methyl]-1,3-oxazinan-3-yl] [5-fluoro-2-(pyrimidin-2-yl)phenyl]methanone] was 60.4 nM.
As for `Cc1ccc(-n2nccn2)c(C(=O)N2CCCOC2Cc2cnn(-c3ccc(F)cn3)c2)c1` (single isomer, unassigned; (-)) [Example 47, (−)-[2-{[1-(5-Fluoropyridin-2-yl)-1H-pyrazol-4-yl]methyl}-1,3-oxazinan-3-yl][5-methyl-2-(2H-1,2,3-triazol-2-yl)phenyl]methanone], in assay [2] (setting [3]), the IC50 is 3.4 nM.
For the compound `Cc1ccc(-n2nccn2)c(C(=O)N2CC(C)COC2Cn2cc(-c3ccc(F)cn3)cn2)c1` (single isomer, unassigned; (-)) [Example 49, (−)-[(2S*,5R*)-2-{[4-(5-Fluoropyridin-2-yl)-1H-pyrazol-1-yl]methyl}-5-methyl-1,3-oxazinan-3-yl][5-methyl-2-(2H-1,2,3-triazol-2-yl)phenyl]methanone], the IC50 in assay [2] (setting [3]) is 0.8 nM.
Turning to `Cc1ccc(-n2nccn2)c(C(=O)N2C[C@H](C)O[C@H]2Cn2cc(-c3ccc(F)cn3)cn2)c1` [Example 5, (−)-[(2S,5S)-2-{[4-(5-Fluoropyridin-2-yl)-1H-pyrazol-1-yl]methyl}-5-methyl-1,3-oxazolidin-3-yl][5-methyl-2-(2H-1,2,3-triazol-2-yl)phenyl]methanone], the IC50 in assay [2] (setting [3]) was found to be 86 nM.
Consider `Cc1ccc(-n2nccn2)c(C(=O)N2C[C@@H](C)O[C@H]2Cn2cc(-c3ccc(F)cn3)cn2)c1` [Example 6, (−)-[(2S,5R)-2-[[4-(5-fluoropyridin-2-yl)-1H-pyrazol-1-yl]methyl]-5-methyl-1,3-oxazolidin-3-yl] [5-methyl-2-(2H-1,2,3-triazol-2-yl)phenyl] methanone], for which the IC50 in assay [2] (setting [3]) is 27.5 nM.
Turning to `Cc1ccc(-n2nccn2)c(C(=O)N2[C@H](C)CO[C@H]2Cn2ccc(-c3ccc(F)cn3)n2)c1` [Example 7, [(2S,4R)-2-[[3-(5-fluoropyridin-2-yl)-1H-pyrazol-1-yl]-methyl]-4-methyl-1,3-oxazolidin-3-yl] [5-methyl-2-(2H-1,2,3-triazol-2-yl)phenyl] methanone], the IC50 in assay [2] (setting [3]) was found to be 7.2 nM.
`Cc1ccc(-n2nccn2)c(C(=O)N2[C@H](Cn3ccc(-c4ccc(F)cn4)n3)OC[C@@H]2C)c1` [Example 9, (−)-[(2S,4S)-2-[[3-(5-fluoropyridin-2-yl)-1H-pyrazol-1-yl]-methyl]-4-methyl-1,3-oxazolidin-3-yl] [5-methyl-2-(2H-1,2,3-triazol-2-yl)phenyl] methanone]: the half-maximal inhibitory concentration (IC50) in assay [2] (setting [3]) amounted to 23.4 nM.

Usually IC50 stands for the midpoint of a concentration-inhibition curve.
